In US10183936B2, “Hepatitis B core protein allosteric modulators” (priority 2014, dated 2019):

Columns and labels:
[1] = test system: HBV viral production in AD38 cells; assay: Viral load production in AD38 cells by quantitative PCR of the HBV core sequence in supernatant; type: cell-based; conditions: Hepatitis B virus, 144 h; 10 μM compound, 6 days at 37° C., viral load in supernatant compared against DMSO control wells; read-out: AD38 Viral Load (CpAM/DMSO %) at 10 μM
How it was run: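 AD38 cells seeded at 50,000/well, treated 6 days at 37° C with compound added as 10× solution in 10% DMSO. HBV core sequence in clarified supernatant quantified by TaqMan qPCR against known standards; viral load compared with DMSO control wells.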

AD38 cells = assay: Viability of AD38 cells (Promega CellTiter-Glo) at the end of compound treatment; type: cell-based; conditions: 10 μM compound, 6 days, luminescence normalized against DMSO control wells (controls being 100%)
How it was run: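 AD38 cells seeded at 50,000/well received compound from a 10× solution in 10% DMSO and were incubated 6 days at 37° C. Viability was then read by CellTiter-Glo luminescence in tetracycline-free medium with 2% FBS and 1% DMSO, normalized to DMSO control wells (100%) and reported as percent viability.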

Compound | activity at 10 µM [1] | AD38 Viability Normalized Result (CPAM/DMSO %) at 10 μM (AD38 cells)
O=C(Nc1ccncc1)c1ccc2c(c1)NC(=O)c1ccccc1[S+]2[O-] (stereo not shown) [Compound 1382] | 47% | 117%
O=C(NCCc1ccccn1)c1ccc2c(c1)NC(=O)c1cccc(F)c1S2 [Compound 1383] | 1% | 87%
CN(C)S(=O)(=O)c1ccc(CCNC(=O)c2ccc3c(c2)NC(=O)c2cc(F)ccc2S3)cc1 [Compound 1384] | 4% | 79%
O=C(Nc1cccc(-c2ccccn2)c1)c1ccc2c(c1)NC(=O)c1cc(F)ccc1S2 [Compound 1385] | 26% | 51%
O=C(Nc1cccc(-c2cnco2)c1)c1ccc2c(c1)NC(=O)c1cc(F)ccc1S2 [Compound 1386] | 61% | 95%
CN(C)S(=O)(=O)c1ccc(CCNC(=O)c2ccc3c(c2)NC(=O)c2ccc(F)cc2S3)cc1 [Compound 1387] | 2% | 78%
O=C(NCc1cncs1)c1ccc2c(c1)NC(=O)c1ccccc1[S+]2[O-] (stereo not shown) [Compound 1388] | 5% | 71%
O=C(NCCc1cccnc1)c1ccc2c(c1)NC(=O)c1ccccc1[S+]2[O-] (stereo not shown) [Compound 1389] | 15% | 89%
O=C(NCc1cncnc1)c1ccc2c(c1)NC(=O)c1cccc(F)c1S2 [Compound 1390] | 2% | 92%
O=C(NCCc1cccnc1)c1ccc2c(c1)NC(=O)c1cccc(F)c1S2 [Compound 1391] | 2% | 71%
O=C(NCc1cccnc1)c1ccc2c(c1)NC(=O)c1cccc(F)c1S2 [Compound 1392] | 2% | 85%
O=C(Nc1ccncc1)c1ccc2c(c1)NC(=O)c1cccc(F)c1S2 [Compound 1393] | 41% | 87%
O=C(NCCc1ccccn1)c1cc2c(cc1F)Sc1ccccc1C(=O)N2 [Compound 1394] | 55% | 94%
O=C(NCCc1cccnc1)c1cc2c(cc1F)Sc1ccccc1C(=O)N2 [Compound 1395] | 64% | 79%
O=C(NCc1cccnc1)c1cc2c(cc1F)Sc1ccccc1C(=O)N2 [Compound 1396] | 63% | 95%
COCC(Cc1cncnc1)NC(=O)c1ccc2c(c1)NC(=O)c1cc(F)ccc1S2 (stereo not shown) [Compound 1397] | 73% | 95%
CN(C)S(=O)(=O)c1ccc(CCCNC(=O)c2ccc3c(c2)NC(=O)c2ccc(F)cc2S3)cc1 [Compound 1398] | 5% | 60%
O=C1Nc2cc(S(=O)(=O)N3CCCCC3)ccc2Sc2ccccc21 [Compound 1399] | 105% | 92%
O=C(Nc1cccc(-c2cccnc2)c1)c1ccc2c(c1)NC(=O)c1cc(F)ccc1S2 [Compound 1400] | 34% | 105%
O=C(NCCc1cnco1)c1ccc2c(c1)NC(=O)c1ccc(F)cc1S2 [Compound 1402] | 12% | 81%
O=C(NCCc1cncs1)c1ccc2c(c1)NC(=O)c1ccc(F)cc1S2 [Compound 1403] | 15% | 82%
CCOC(=O)C(NC(=O)c1ccc2c(c1)NC(=O)c1cc(F)ccc1S2)c1ccncc1 (stereo not shown) [Compound 1405] | 14% | 94%
O=C(NCc1cncs1)c1ccc2c(c1)NC(=O)c1cccc(F)c1S2 [Compound 1407] | 3% | 103%
O=C(NCc1cnco1)c1ccc2c(c1)NC(=O)c1cccc(F)c1S2 [Compound 1408] | 17% | 94%
O=C(NCCc1cncnc1)c1ccc2c(c1)NC(=O)c1cccc(F)c1S2 [Compound 1409] | 4% | 83%
O=C(Nc1cccc(-c2ccccc2)c1)c1ccc2c(c1)NC(=O)c1cccc(F)c1S2 [Compound 1410] | 35% | 50%
